The text below walks through data of patent publication US20240374613A1, “BIOACTIVE MOLECULES FOR USE IN TREATING INSULIN RESISTANCE AND/OR RESTORING GLUCOSE HOMEOSTASIS” (PALTECH, priority 2021, published 2024).

In experiment [1] the test system is GLP-1r. The settings on record: DHT infusion 10 mg daily, one month after surgery. As for the experimental part: (§1) The method was evaluated on 15 miniature pigs aged 5 years old (INRAE, UEPR, Saint-Gilles, France) and rendered insulin resistant after 3-4 months high fat high sucrose dict ingestion in excess according to already published data (Malbert et al., 2017b). The diet supplied 4024 kcal per kg of feed and was presented twice daily so that the animals could eat up to 150% of the recommended caloric intake (288 kcal/kg BW^0.75).
Once obese and insulin resistant, the animals were distributed into three groups of equal size (n=5 animals). One group served as control and was submitted only to a dummy implantation procedure including the initial GLP-1r PET imaging sequence using [68Ga]Ga-DO3A-VS-Cys40-Exendin-4. The second group was implanted during a laparoscopic procedure with a silicon catheter (2 mm OD) with its tip located at the portal sensor close to the minimum GLP-1r expression area according to the procedure described in 3.3. The terminal part of the catheter was bend at 90° to enter the periportal area. The catheter was secured at the entrance of the periportal cavity using a dacron surgical mesh (Biomesh P1, Cousin Bioserv Paris) glued to the silicon rubber prior to the implantation. During the implantation, the surgical mesh was glued to the outer layer of the portal vein using a surgical glue dispenser Glubran 2 and Glutack Cousin Bioserv Paris). […]

The procedure of experiment [2]:
as §1
(§2) Once obese and insulin resistant, the animals were distributed into three groups of equal size (n=5 animals). One group served as control and was submitted only to a dummy implantation procedure including the initial GLP-1r PET imaging sequence using [68Ga]Ga-DO3A-VS-Cys40-Exendin-4. The second group was implanted during a laparoscopic procedure with a silicon catheter (2 mm OD) with its tip located at the portal sensor close to the minimum GLP-1r expression area according to the procedure described in 3.3. The terminal part of the catheter was bend at 90° to enter the periportal area. The catheter was secured at the entrance of the periportal cavity using a dacron surgical mesh (Biomesh P1, Cousin Bioserv Paris) glued to the silicon rubber prior to the implantation. During the implantation, the surgical mesh was glued to the outer layer of the portal vein using a surgical glue dispenser Glubran 2 and Glutack Cousin Bioserv Paris). The opposite tip of the catheter exited between the shoulder of the animal and was connected to an elastomeric pump. The pump (Easypump, II, BBraun) delivered 2 mL per hour of a solution of dihydrotestosterone (Sigma, Paris) in sterile water/DMSO (100:5 V/V) so that 10 mg of dihydrotestosterone was infused daily. The amount of the active molecule was irrespective of the body weight (BW). The pump was located in a lateral pocket of a jacket Whose size was adjusted for obese Yucantan minipigs (Lomir, Canada) and wore by the animal for the duration of the experiment. The third group was implanted during a laparoscopic procedure with an implant delivering 100 μg of dihydrostestoterone daily (Belma Technologies, Belgium) irrespective of the weight of the animal. The implant was inserted in the periportal area and the insertion hole achieved on the mesenteric layer for insertion was closed by a patch of surgical mesh glued directly on the meso using a procedure similar that described above. The anesthesia and surgical approach used for laparoscopy were identical those already described by Malbert et al. (Malbert et al., 2017b).
The protocol was described in FIG. 5 and consisted of two periods; one during which an obese insulin resistant status is achieved followed by a one-month post-surgery period during which DHT was slowly release according to the method of delivery described above. For control and implant groups only, the experimental period was also extended for an additional month to evaluate the capacity of the method to achieve a sustained effect on glucose metabolism. This extended period was not achievable on catheter implanted animals due to ethical constraints. A one-week recovery period is inserted in the protocol after the initial PET GLP-1r scan and after the surgery. The data acquired during these periods were discarded from further analysis.
Distribution of GLP-1r along the portal vein and within the abdominal organs was obtained during an initial PET scan after the administration of 25 to 40 MBq [68Ga]Ga-DO3A-VS-Cys40-Exendin-4 according to the above section 3 of the examples. The portal area of low GLP-1r expression was identified and used for insertion of either the catheter tip or the DHT implant according to the above section 3.3 relating to laparoscopic access. The anesthesia and overall procedure for imaging is identical that described by Malbert et al (Malbert et al., 2020b). The same PET scan procedure was repeated one month after the surgical procedure allowing to compare between groups and within subjects of the same group the changes in GLP-1r distribution.

The conditions of experiment [3]: DHT infusion 10 mg/24 H, mean ± SD, N=5. As for the experimental part:
as §1, §2
The protocol was described in FIG. 5 and consisted of two periods; one during which an obese insulin resistant status is achieved followed by a one-month post-surgery period during which DHT was slowly release according to the method of delivery described above. […]

Experiment [4] has as its system muscle protein synthesis. The conditions noted are these: effect in muscle protein synthesis; in the form of gel applied cutaneous; cited from earlier work.
Where [5] appears, read: DHT infusion 10 mg/24 H, periportal catheter, first 30 days after surgery, mean ± SD, N=5.
Where [6] appears, read: DHT infusion 10 mg/24 H, 30 days after the implantation surgery, mean ± SD, N=5.
[7] abbreviates: periportal catheter, first 30 days after surgery.
Where [8] appears, read: 30 days after the implantation surgery.

Regarding `C[C@]12CCC(=O)C[C@@H]1CC[C@@H]1[C@@H]2CC[C@]2(C)[C@@H](O)CC[C@@H]12` [DHT infusion, dihydrotestosterone], the “Portal GLP-1r binding potential/volume of distribution compared to control” value in experiment [1] is listed as “more than doubled”. For the same compound, the “Non portal (pancreatic) GLP-1r binding” value in experiment [1] (ns vs control) is recorded as 4.8±0.41. In experiment [2] (setting [5]), the Abdominal fat is on record as 38.1 ± 0.7!^ % of BW, the Fat is listed as 36.8 ± 0.5 % of BW, the “Liver to spleen ratio” value is recorded as 1.1 ± 0.02 and the Mean arterial pressure is reported as 79 ± 3.1 mmHg. In experiment [2] (setting [5]), the Muscle is given as 6.5 ± 1.0 % of BW, the Pulse rate stood at 104 ± 8.7 min⁻¹ and the Systolic blood pressure is given as 55 ± 2.1 mmHg. Moreover, in experiment [2] (setting [6]), the Clamp plasma insulin is 501 ± 14.1 μU/mL, the Fasting plasma glucose worked out at 4.2 ± 0.23 mmol/L, the Fasting plasma insulin was 2.1 ± 0.21 μU/mL and the “Mean plasma glucose at clamp plateau” value is reported as 4.2 ± 0.36 mmol/L. Besides, in experiment [2] (DHT infusion 10 mg/24 H, euglycemic hyperinsulinemic clamp plateau, 30 days after the implantation surgery, mean ± SD, N=5), the Insulin sensitivity was 6.8 ± 0.20 dL/kg · min/μMU/mL*1E−3. In experiment [3] (setting [7]), this compound registered a Body weight of 80.8 ± 2.0 kg and a Daily ingestion of 8.6 ± 0.03 g/kg · day. Also, in experiment [3] (setting [8]), the Basal metabolic rate is 0.0079 ± 0.0007 kcal/min/kg and the “Fasting glucose oxidation rate” value came to 1.8 ± 0.10 mg/min · kg.

Regarding `C[C@]12CCC(=O)C[C@@H]1CC[C@@H]1[C@@H]2CC[C@]2(C)[C@@H](O)CC[C@@H]12` [DHT, dihydrotestosterone], the ED50 in experiment [4] is on record as 20 mg daily. The “Circulating insulin as fraction of the insulinemia measured in control group” value in experiment [2] (DHT treated animals (both groups), fasting, 30 days after surgery) was 1/3. Moreover, the “Whole-body insulin sensitivity change compared to control” value in experiment [2] (euglycemic hyperinsulinemic clamp, irrespective of the DHT group) is “one third increase”.
